Patent US20160122758A1, “AGENTS FOR DOWNREGULATION OF THE ACTIVITY AND/OR AMOUNT OF BCL-XL AND/OR BCL-W” (YEDA RESEARCH AND DEVELOPMENT CO. LTD., priority 2013, published 2016)
Residues, ends and D or L forms follow the SMILES beside them. *: point of attachment. Cbz = O=C(OCc1ccccc1)*; CH2F = FC*

Assays:
[1] = test system: Etoposide treated senescent IMR-90 cells; experiment: Viability assay after siRNA transfection of Etoposide treated senescent IMR-90 cells; format: cell-based, human; conditions: 10 μM ABT-199 for 24 hours, three days post siRNA transfection
Description: (§1) Human primary fibroblasts (IMR-90, BJ) were obtained from ATCC MEFs were prepared from day 13.5 embryos. All cultures were maintained in DMEM supplemented with 10% fetal bovine serum (Hyclone). Senescence was induced by treatment with Etoposide ([…], Sigma), or the introduction of oncogenic H-ras^v12 using infections into IMR-90 cells (as described by Narita, 2003).
(§2) Growing and senescent cells were plated in 12-well plates at 7.5×10^4 cells per well. The following day, cells were treated with DMSO control, ABT-737 (Selleckchem, USA) or ABT-199 (ChemieTek, USA) and cell viability was analyzed 24 hours thereafter. 300 μl of PrestoBlue Reagent (Invitrogen, USA) were added to each well, and plates were incubated for 20 minutes at 37 C. 100 μl samples were taken in duplicates to a 96 well plate and read at an OD of 540 nm using a Tecan plate reader (Infinite® M200). A three-hour pre incubation with 100 μM z-VAD-fmk (Santa Cruz, USA) was performed prior to the addition of ABT-737 where indicated.
(§3) ON-TARGETplus SMARTpool small-interfering RNAs targeting p21, Bcl-2, Bcl-w, Bcl-xL and the nontargeting pool siRNAs (control) were transfected into cells with the Dharmafect 1 reagent (all from Dharmacon, Lafayette, Colo., USA). siRNAs were washed away 24 hours post transfection and viability was analyzed four days thereafter as described above.

[2] = test system: senescent IMR-90 or MEF cells; experiment: Viability assay, ABT-199 alone on senescent IMR-90 or MEF cells; format: cell-based, human, mouse; conditions: ABT-199 for 24 hours
Description: as §1, §2

[3] = test system: cleaved caspase-3; experiment: Immunoblot for cleaved caspase-3 in IMR-90 cells treated with ABT-737 with or without z-VAD-fmk; format: cell-based, human
Description: Cells were lysed in RIPA buffer. Equal amounts of protein were separated on 12% SDS-polyacrylamide gels and transferred to PVDF membranes. Detection was performed using the following antibodies: anti-Rb (9313), anti-cleaved parp (9541), anti-cleaved caspase-3 (9661), anti-phospho-p53 (9284), anti-mouse-p53 (2524), anti-phospho-NF-κB (3033), anti-Bcl-2 (2870), anti-Bcl-w (2724) and anti-Bcl-xL (2764) were purchased from Cell Signaling Technology. Anti-human p53 (DO1 and PAb1801). Anti-p16 (sc-759), anti-mouse-p21 (sc-397), anti-NFκB p65 (sc-372) and anti-α-Tubulin (sc-9104) were obtained from Santa Cruz Biotechnology. Anti-human-p21 (556431) was obtained from BD Pharmingen, Anti-Mcl-1 (1239-1) was obtained from Epitomics.
as §2, with “indicated. […]” for “indicated.”

[4] = test system: Etoposide treated BJ cells; experiment: Viability assay after siRNA transfection, senescent BJ cells; format: cell-based, human; conditions: Etoposide treated BJ cells with sip21; z-VAD-fmk four days with daily replenishment
Description: as §1, §2
as §3, with “above. […]” for “above.”

[5] = test system: senescent IMR-90 cells; experiment: Viability assay, ABT-737 with or without z-VAD-fmk on IMR-90 cells; format: cell-based, human
Description: as §1, §2
Members of the Bcl-2 family negatively regulate apoptotic pathway (Azmi et al., 2011; Cory et al., 2003; Reed, 2008). To determine whether ABT-737 kills senescent cells via the apoptotic pathway, DNA damage induced senescent IMR-90 cells, oncogenic H-Ras^v12 induced senescent cells and control growing cells were treated with ABT-737 alone or in combination with pan-caspase inhibitor z-VAD-fmk. […]

[6] = test system: senescent human (IMR-90) and mouse (MEF) fibroblasts; experiment: Viability assay, ABT-737 on senescent and control IMR-90 and MEF fibroblasts; format: cell-based; conditions: ABT-737 for 24 hours
Description: as §1, §2
To further test the hypothesis that an increase in the levels of anti-apoptotic proteins Bcl-w and Bcl-xL could account for the apoptotic resistance of senescent cells by an independent approach, cells were treated with the pharmacological inhibitor of the Bcl-2 family of proteins, ABT-737 (Chauhan et al., 2007). […]

## CC1(C)CCC(CN2CCN(c3ccc(C(=O)NS(=O)(=O)c4ccc(NCC5CCOCC5)c([N+](=O)[O-])c4)c(Oc4cnc5[nH]ccc5c4)c3)CC2)=C(c2ccc(Cl)cc2)C1 [ABT-199]
[1]
  additive effect of Bcl-2 inhibition on top of Bcl-w and Bcl-xL knockdown on senescent cell viability: statistically significant, but minor additive effect
[2]
  effect on viability of oncogenic H-ras^v12 induced senescent IMR-90 cells: minor decrease in cell viability
[2]; IMR-90 or MEF senescent cells
  effect on viability of senescent cells, Bcl-2 inhibition alone: almost no effect

## COC(=O)C[C@H](NC(=O)[C@H](C)NC(=O)[C@@H](NC(=O)OCc1ccccc1)C(C)C)C(=O)CF [z-VAD-fmk] (Cbz-Val-Ala-Asp(OMe)-CH2F)
[3]; senescent IMR-90 cells, ABT-737 plus z-VAD-fmk
  caspase-3 cleavage after addition of z-VAD-fmk to ABT-737: abolished this cleavage
[4]
  rescue of cell death caused by p21 knockdown: 20%
[5]; 100 μM z-VAD-fmk three-hour pre incubation, then ABT-737
  death of senescent cells following ABT-737 treatment, in presence of pan-caspase inhibitor: prevented death

## CN(C)CC[C@H](CSc1ccccc1)Nc1ccc(S(=O)(=O)NC(=O)c2ccc(N3CCN(Cc4ccccc4-c4ccc(Cl)cc4)CC3)cc2)cc1[N+](=O)[O-] [ABT-737]
[3]; senescent IMR-90 cells treated with ABT-737
  caspase-3 cleavage: caspase-3 cleavage
[6]; Etoposide or H-Ras^V12 induced senescent IMR-90 and MEF
  reduction of viability of senescent cells: 50%
[6]; growing, vehicle treated or vector transduced cells
  effect on viability of control cells: minor effect
[5]; ABT-737 alone, 24 hours, DNA damage or H-Ras^v12 induced senescent IMR-90
  death of senescent cells: induced death
